This passage reports viability results from paper PMC12040169 (PLOS Biology, 2025).

A short description of one series: in vitro. The following applies: human, hela cells, % viability.
For `O=C(NNc1ccc([N+](=O)[O-])cc1)c1cccs1` [CBK261709], the viability at 28.5 h, 10 µM came out at 92.1%. In the case of `Brc1ccc(-c2nc(NCCCN3CCOCC3)cc(-c3ccccc3)n2)cc1` [CBK261712], the viability at 28.5 h, 10 µM came out at 90.1%. On to `Oc1cc(-c2ccccc2)nc(NNc2ccccc2)n1` [CBK261716], for which the viability at 28.5 h, 10 µM was found to be 96.6%. The same measure, in the same setting: then `O=C1CC(c2ccccc2)=NN1c1nc(-c2ccccc2)cc(-c2ccc(F)cc2)n1` [CBK261717], with 92.4%; and `Cc1ccc(O)c(NC(=O)Cn2nc([N+](=O)[O-])c(Br)c2C)c1` [CBK261718], with 92.2%. On to `Cc1c(Cl)c([N+](=O)[O-])nn1CC(=O)N1CCN(C)CC1` [CBK261719], for which the viability at 28.5 h, 10 µM was found to be 89.4%. In the case of `CC1CCCCN1S(=O)(=O)c1cccc2nonc12` (stereo not drawn) [CBK261723], the viability at 28.5 h, 10 µM worked out at 94.5%. The same measure, in the same setting: next, `CCOc1ccc(C(=O)NCCC(=O)O)cc1` [CBK261725D]: 92.2%; `O=S(=O)(c1ccc(Oc2ccc(S(=O)(=O)N3CCCCCC3)cc2)cc1)N1CCCCCC1` [CBK261729]: 99%; `COc1cc(CN2CCCCC2CO)c([N+](=O)[O-])cc1OC` (stereo not drawn) [CBK261730]: 85.1%. Same read-out and setting: then `COc1cc(CN(C)CCc2ccccn2)c([N+](=O)[O-])cc1OC` [CBK261737G], with 88.3%; and `Cc1cc(I)ccc1NCC(=O)NN` [CBK261738], with 91.1%.

Take `O=C(NCCCn1ccnc1)c1cccs1` [CBK261740]: the viability at 28.5 h, 10 µM came to 90.2%.

Consider `COc1ccccc1CN(C)CCc1ccccn1` [CBK261741G], for which the viability at 28.5 h, 10 µM was 87.2%.

For `COc1ccc(C(=O)O)cc1S(=O)(=O)N1CCCCCC1` [CBK261742], the viability at 28.5 h, 10 µM turned out to be 99.2%. Turning to `CN(C1CCCCC1)S(=O)(=O)c1cc(Cl)ccc1Cl` [CBK261744], the viability at 28.5 h, 10 µM was 118%. As to `COc1ccc(NC(=O)CSc2nc(O)cc(=O)[nH]2)cc1` [CBK261747], the viability at 28.5 h, 10 µM stood at 88.8%.

Regarding `CC(=O)c1ccc(N2CCN(Cc3cc(C(C)(C)C)c(O)c(C(C)(C)C)c3)CC2)cc1` [CBK261749], the viability at 28.5 h, 10 µM came out at 87.2%.

For `[O-][S+](CC(O)COc1ccc(Cl)cc1)c1ccccn1` (stereo not drawn) [CBK261750], the viability at 28.5 h, 10 µM worked out at 99.9%. Turning to `O=[N+]([O-])c1ccccc1S(=O)(=O)NCc1ccccn1` [CBK261751], the viability at 28.5 h, 10 µM was found to be 92.6%. On to `O=[N+]([O-])c1ccc(/C=N/C23CN4CN(CN(C4)C2)C3)s1` [CBK261752], for which the viability at 28.5 h, 10 µM was found to be 105%.

`O=C(c1ccc(-c2ccccc2)cc1)c1no[n+]([O-])c1C(=O)c1ccc(-c2ccccc2)cc1` [CBK261754]: the viability at 28.5 h, 10 µM is 106%.

In the case of `CC(=O)Nc1c(Nc2ccccc2)c2ccccc2oc1=O` [CBK261756], the viability at 28.5 h, 10 µM came out at 88.1%. The same measure, in the same setting: next, `O=S(=O)(NCCN1CCOCC1)c1cc(Cl)ccc1Cl` [CBK261757]: 85.1%; `CC(C)OCC(O)C[S+]([O-])Cc1ccccc1` (stereo not drawn) [CBK261761]: 93.4%. For `NNC(=O)c1cc(-c2ccccc2)nc2ccc(Br)cc12` [CBK261762], the viability at 28.5 h, 10 µM came out at 102%.

With `Cc1cc(C)nc(SCCN2CCOCC2)n1` [CBK261769C], the viability at 28.5 h, 10 µM came to 93.8%.

As to `Cc1cc(/C=N/O)c(C)c(COCc2cc(C)cc(/C=N/O)c2C)c1` [CBK261770], the viability at 28.5 h, 10 µM was found to be 91.2%. In the case of `COc1ccc(Oc2cc(Cl)nc(N)n2)cc1` [CBK261771], the viability at 28.5 h, 10 µM is 101%. Still for that read-out and setting: next, `CC(C)(C)c1ccc(OCC(O)CSc2nnc[nH]2)cc1` (stereo not drawn) [CBK261776]: 103%. Consider `c1ccc(Oc2cccc(OCCCN3CCCCC3)c2)cc1` [CBK261781], for which the viability at 28.5 h, 10 µM turned out to be 95.2%.

In the case of `Brc1ccc(OCCCCCCN2CCCCC2)cc1` [CBK261784], the viability at 28.5 h, 10 µM was determined as 97%. Still for that read-out and setting: next, `O=C(O)/C=C/C(=O)NNC(=O)c1ccccc1Br` [CBK261786]: 111%; `CC1=NN(c2ccc([N+](=O)[O-])cc2)C(=O)/C1=C\NCCN1CCN(C(=O)c2ccc(Br)cc2)CC1` [CBK261788]: 110%. With `O=C(O)CC(C(=O)O)N1C(=O)/C(=C2/C(=O)Nc3ccc(Br)cc32)SC1=S` (stereo not drawn) [CBK261791], the viability at 28.5 h, 10 µM came out at 104%. The same measure, in the same setting: then `CC(=O)Oc1cccc(NC(=O)CC2Sc3ccccc3NC2=O)c1` (stereo not drawn) [CBK261792], with 92%; and `O=C(/C=C/c1ccccc1Cl)NCCc1ccccc1` [CBK261794], with 97.5%; and `NNc1nc(-c2ccccc2)cc(-c2ccc(Br)cc2)n1` [CBK261795], with 107%. Same read-out and setting: next, `O=[N+]([O-])c1ccc(S(=O)(=O)NCCc2nc3ccccc3[nH]2)cc1` [CBK261796]: 112%; `COc1ccc(-c2csc(Nc3ccc(S(=O)(=O)Nc4cc(C)on4)cc3)n2)cc1OC` [CBK261797B]: 95.3%; `COc1ccc(/C=N\N(C)c2nc(-c3ccccc3)cc(-c3ccc(Br)cc3)n2)cc1OC` [CBK261799]: 104%. Regarding `O=C(NCCc1nc2ccccc2[nH]1)Nc1ccccc1` [CBK261803], the viability at 28.5 h, 10 µM turned out to be 103%. For `O=C(/C=C/c1ccccc1)NC(NCc1cccnc1)C(Cl)(Cl)Cl` (stereo not drawn) [CBK261804], the viability at 28.5 h, 10 µM worked out at 95.3%. Still for that read-out and setting: next, `COc1cccc(OCCCCCc2c(C)n[nH]c2C)c1` [CBK261805]: 104%. On the same count and under the same terms, next, `c1ccc2[nH]c(CCc3nc4ccccc4[nH]3)nc2c1` [CBK261807]: 111%. As to `Cc1cc(SCC(C)C)n2ncnc2n1` [CBK261808], the viability at 28.5 h, 10 µM was 112%. The same measure, in the same setting: next, `O=C(O)C/N=C1/CCCc2ccccc2N1` [CBK261809]: 90.7%.

For `CC(=O)N(Cc1ccccc1)C1CCCc2c1[nH]c1ccc(C)cc21` (stereo not drawn) [CBK261810], the viability at 28.5 h, 10 µM turned out to be 98%. Still for that read-out and setting: next, `O=C(O)c1ccc(-c2ccc(/C=c3\sc4nc5ccccc5n4c3=O)o2)cc1` [CBK261817]: 99.3%; `O=C1NC(=S)N/C1=C/c1cc2c(cc1Cl)OCO2` [CBK261818]: 91.5%. Consider `O=C1CSC(=O)N1CNc1ccc(Br)cc1` [CBK261819], for which the viability at 28.5 h, 10 µM was 90.2%. Take `C=CCc1ccc(OCC(=O)NN)c(OC)c1` [CBK261831]: the viability at 28.5 h, 10 µM was 97.5%.

Consider `CCOC1C(OCC)N(S(=O)(=O)c2ccc(C)cc2)CCN1S(=O)(=O)c1ccc(C)cc1` (stereo not drawn) [CBK261832], for which the viability at 28.5 h, 10 µM was determined as 116%.

Regarding `CC(C)(CO)NC(=O)COc1ccc(Cl)cc1` [CBK261833], the viability at 28.5 h, 10 µM worked out at 103%.

Take `CC(NS(=O)(=O)c1ccc([N+](=O)[O-])cc1)C(=O)O` (stereo not drawn) [CBK261834]: the viability at 28.5 h, 10 µM was determined as 90.5%. The same measure, in the same setting: next, `O=[N+]([O-])c1cc(C(F)(F)F)ccc1NC(CO)(CO)CO` [CBK261838]: 88.4%; `Cc1nonc1NC(=O)CN1CCCCC1` [CBK261839]: 110%; `Cc1nonc1NC(=O)CN1CCCC1` [CBK261840]: 109%. On the same count and under the same terms, next, `COc1cc(/C=N/c2ccc(/N=C/c3cc(Br)c(O)c(OC)c3)cc2)cc(Br)c1O` [CBK261843]: 82.7%.

With `O=C(O)/C(O)=C/C(=O)c1ccc(F)cc1` [CBK261844], the viability at 28.5 h, 10 µM was determined as 89.4%.

In the case of `COc1ccc(O)c(CN(C)CCN(C)C)c1` [CBK261854], the viability at 28.5 h, 10 µM is 89.4%. On the same count and under the same terms, next, `COc1ccc(CCN(C)Cc2ccncc2)cc1OC` [CBK261861]: 98.4%; `O=[N+]([O-])c1ccccc1/C=C/CN1CCN(C/C=C/c2ccccc2)CC1` [CBK261864]: 93%; `CN(C)CCN(Cc1ccccc1)Cc1c(F)cccc1Cl` [CBK261867]: 112%. As to `CCOC(=O)N1CCN(Cc2ccc(O)c(OC)c2)CC1` [CBK261873], the viability at 28.5 h, 10 µM stood at 98.5%. Still for that read-out and setting: then `CC(CCN1CCN(CCO)CC1)c1ccccc1` (stereo not drawn) [CBK261876], with 102%.

On to `c1ccc(CCCN2CCN(Cc3ccccc3)CC2)cc1` [CBK261878], for which the viability at 28.5 h, 10 µM worked out at 90.1%. The same measure, in the same setting: next, `CC(CCN1CCN(C)CC1)c1ccccc1` (stereo not drawn) [CBK261881]: 88.5%. Same read-out and setting: then `COc1cc(CN2CCN(C/C=C/c3ccccc3)CC2)cc(I)c1O` [CBK261882], with 91.7%. The same measure, in the same setting: then `COc1ccc(CN2CCN(C)CC2)cc1OCc1ccccc1` [CBK261886], with 88.2%; and `COc1ccccc1/C=C/CN(C)CCN(C)C` [CBK261888], with 88.5%; and `CN(C/C=C/c1ccccc1[N+](=O)[O-])CCc1ccccn1` [CBK261890], with 92.5%. With `Cl/C(=C\c1ccccc1)CN1CCOCC1` [CBK261892], the viability at 28.5 h, 10 µM was 114%. The same measure, in the same setting: then `COc1ccc(CN2CCN(c3ccc(F)cc3)CC2)cc1OCc1ccccc1` [CBK261894], with 95%; and `CC(O)CN(CC(C)O)CC1CC2C=CC1C2` (stereo not drawn) [CBK261896], with 90.4%. `COc1cc(CN2CCN(c3cc(C)ccc3C)CC2)ccc1OCc1ccccc1` [CBK261898]: the viability at 28.5 h, 10 µM stood at 86.6%. As for `COc1ccc(CN2CCN(c3ccccc3F)CC2)cc1OCc1ccccc1` [CBK261900], the viability at 28.5 h, 10 µM is 115%. With `CC(CCN1CCN(Cc2ccccc2)CC1)c1ccccc1` (stereo not drawn) [CBK261902], the viability at 28.5 h, 10 µM was determined as 89.1%. Still for that read-out and setting: next, `CN(C)c1ccc(/C=C/CN2CCN(c3ccc([N+](=O)[O-])cc3)CC2)cc1` [CBK261904]: 96.9%.

Staying with this series, now noted: human, hela cells, % viability, bulk resorufin, single well.
`O=C(NN=C1CCCCC1)C(O)(c1ccccc1)c1ccccc1` [CBK261783]: the viability at 28.5 h, 10 µM was found to be 91.1%. Consider `Cc1ccc(OP(=O)(NCCN2CCOCC2)Oc2ccc(C)cc2)cc1` [CBK261802], for which the viability at 28.5 h, 10 µM was 107%. The same measure, in the same setting: next, `CN(C)CCCN/C=C1/C(=O)NC(=S)N(c2ccc(Cl)cc2)C1=O` [CBK261828]: 91.6%. On the same count and under the same terms, then `Cc1ccccc1N1C(=O)NC(=O)/C(=C/NCCCn2ccnc2)C1=O` [CBK261829], with 107%; and `CCN(CC)CCN(C)Cc1ccc2ccc3cccc4ccc1c2c34` [CBK261859], with 103%.
